# Measurements: patent publication US6599499B1, “Uses of diterpenoid triepoxides as an anti-proliferative agent” (priority 1999, dated 2003)
# Entries after “also recorded” stand apart in the source; their conditions may differ.
# Experiments:
# HT1080 cells = test: Apoptosis by Annexin V and Propidium Iodide staining, HT1080 cells; type: cell-based, human; parameters: unit of the concentration uncertain; conditions: HT1080, 20 h; PG490 5 ng/ml; CPT-11 (5 µM) alone, (5 μM) in combination; PG490 pretreatment 4 h then CPT-11 16 h
# Protocol: HT1080 cells were treated as shown and harvested for analysis of apoptosis by Annexin V and Propidium Iodide staining 20 h after treatment. In experiments with a combination of PG490 and CPT-11, cells were pretreated with PG490 for 4 h followed by the addition of CPT-11 for 16 h.
# p21 mRNA = p21 mRNA by Northern blot in HT1080 cells; type: cell-based, human; conditions: triptolide 20 ng/ml
# Protocol: Northern Blot Analysis. RNA was prepared from HT1080 cells using RNeasy Mini Kit from Qiagen Inc. (Valencia, Calif.). cDNAs for Northern blot analysis for p21 and p53 were prepared using RT-PCR with […] of total RNA. The following primer pairs were used: p53, (SEQ ID NO:11) 5′-[…]-3′ and (SEQ ID NO:12) 5′-[…]-3′; p21, (SEQ ID NO:13) 5′-[…]-3′ and (SEQ ID NO:14) 5′-[…]-3′; and glyceraldehyde-3-phosphate dehydrogenase, (SEQ ID NO:15) 5′-[…]-3′ and 5′-(SEQ ID NO:16) […]-3′.
# Dx5 cells = test: Cell viability by annexin and propidium iodide staining/FACS with z-VAD.fmk, Dx5 cells; conditions: Homo sapiens, read-out: cell viability in PG490-treated Dx5 cells
# Protocol: (§1) Cell death reagents and assays. Cell viability was measured by an MTT assay as recently described (Lee et al. (1999) J. Biol. Chem. 274:13451-13455. z-VAD-fluoromethylketone (z-VAD.fmk) was obtained from Alexis Biochemicals, San Diego, Calif. The effect of z-VAD.fmk on cell viability was analyzed by annexin and propidium iodide staining followed by FACS analysis according to the manufacturer's protocol (Clontech Laboratories, Palo Alto, Calif.). The analysis of apoptosis in histologic sections was done by terminal deoxynucleotidyl transferase (TdT)-mediated d-UTP nick end labeling (TUNEL) of slides from paraffin sections of day 3 tumors harvested from the mice 24 h after the second of two daily treatments with PG490-88 or saline. TUNEL staining was done according to the manufacturer's protocol (Boehringer Mannheim, Indianapolis, Ind.) and then the histology slides were counterstained with methyl green. DNA was isolated from cells for analysis of internucleosomal DNA laddering followed by agarose gel electrophoresis and ethidium bromide staining.
# p53 = p53 protein stability in the presence of cycloheximide; type: cell-based, human
# Protocol: Immunoblot analysis using other antibodies was performed as described above. The band intensity was measured by NIH Image 1.62.
# Immunoblotting. Cells were harvested at the conditions and times indicated and lysed using HNET buffer (50 mM HEPES, pH 7.5, 100 mM NaCl, 1 mM EGTA, and 1% Triton X-100) supplemented with 1 mM dithiothreitol, 1 mM phenylmethylsulfonyl fluoride, and protease inhibitors mixture (Roche Molecular Biochemicals). 100 μg of protein was loaded on 10% SDS-PAGE followed by transferring to polyvinylidene difluoride membrane. Immunoblotting was performed as described previously using a p53 mouse monoclonal antibody from Oncogene Research Products. […] Immunoblot analysis using other antibodies was performed as described above. The band intensity was measured by NIH Image 1.62.
# H23 human tumor cells = system: H23 human tumor cells
# Protocol: as §1
# Nude mouse xenograft model. Female NCr nude mice were purchased from Taconic, Germantown, N.Y., and were generally 20-24 grams when used. Mice were kept in autoclaved filter-top microisolator cages with autoclaved water and sterile food ad lib. The cages were maintained in an isolator unit providing filtered air (Lab Products, Inc., Maywood, N.J.). Tumor cells were grown and harvested as described above. NCr nude mice were injected intradermally with 5×10^6 tumor cells. In some experiments, treatment was initiated on the day of tumor cell implantation. […] Mice were treated IP daily for 5 days per week.
# H23 tumor cells were implanted intradermally in nude mice. When the tumors reached approximately 100 mm^3, daily IP treatment with PG490-88 was initiated. […] The data in FIG. 3 represents the measurement of H23 tumor volume on day 14 after the initiation of treatment. Nude mice bearing xenografts of H23 human tumor cells were treated daily as shown. The data represent the means and the standard errors of the means of the tumor volumes as percent of the day 0 tumor volumes for each animal measured day 3, 6, 10 and 14 days after the initiation of treatment. There were 5 mice per group.
# H23 tumor cells = test: Nude mouse xenograft, prevention of H23 tumor formation; type: in vivo, nude mice
# Protocol: Nude mouse xenograft model. […] Tumor cells were grown and harvested as described above.
# PG490-88 prevents human tumor development in nude mice. The results reported above show cytotoxicity of PG490 on tumor cells in vitro. To extend these studies to an in vivo setting using human tumor cell xenografts, PG490-88 was used, a more easily administered, water soluble prodrug of PG490. H23 tumor cells were implanted intradermally in nude mice and the animals were left untreated or were injected IP daily with PG490-88 starting at the time of implantation. Tumors arose in 5/5 of the untreated mice but no tumors were observed after 5 or 7 weeks of dosing with PG490-88 at doses ranging from 0.25 to 0.75 mg/kg/day (Table 1). PG490-88 treatment was stopped after week 5 in 3 mice per group and was continued for an additional 2 weeks in 2 mice per group. A visible tumor arose during the sixth week in one animal in each group in which PG490-88 dosed at 0.5 mg/kg/day or less was stopped but no more visible tumors appeared in these groups after week 6 (Table 1).
# Nude mice were implanted with H23 tumor cells (day 0). Mice were left untreated, or were injected IP with PG490-88 daily from the day of tumor cell implantation for 5 consecutive days per week. PG490-88 was administered for 5 weeks. The untreated group consisted of 5 mice. Three mice in each of the treatment groups received PG490-88 for 5 weeks, and 2 mice in each of these groups were given PG490-88 for 2 additional weeks (7 weeks total). The tumor appeared only in mice in which treatment had been stopped after 5 weeks.
smiles,measurement,setting,value
"CC(C)[C@]12O[C@H]1[C@@H]1O[C@]13[C@]1(O[C@H]1C[C@H]1C4=C(CC[C@@]13C)C(=O)OC4)[C@@H]2O [PG490, triptolide]",Apoptotic Cells (%),HT1080 cells,13.5%
same,DNA strand breaks,DNA strand breaks,does not induce DNA strand breaks
same,effect on doxorubicin-mediated induction of p21 mRNA,p21 mRNA,completely blocked
same,viability at 0.02 µg/mL,Dx5 cells,15%
same,p53 stability versus untreated cells,"p53; HT1080, triptolide 20 ng/ml 0.5 h prior to cycloheximide 30 μg/ml",no difference from untreated cells at 60 min
same,p53 stability versus untreated cells,"p53; MCF-7, triptolide 0.5 h prior to cycloheximide 30 μg/ml",no difference from untreated cells at 60 min
"CC(C)[C@]12O[C@H]1[C@@H]1O[C@]13[C@]1(O[C@H]1C[C@H]1C4=C(CC[C@@]13C)C(=O)OC4)[C@@H]2OC(=O)CCC(=O)[O-].[Na+] [PG490-88, 14-succinyl triptolide sodium salt]",decrease of mean tumor size from the initial value at day 0,"H23 human tumor cells; PG490-88 0.75 mg/kg/day, day 14",61%
same,decrease of tumor size relative to the day 14 vehicle control,"H23 human tumor cells; PG490-88 alone 0.75 mg/kg/day, combination PG490-88 0.25 mg/kg/day plus taxol 10 mg/kg/day",97%
same,inhibition of tumor growth,H23 human tumor cells; daily IP PG490-88,inhibited tumor growth in a dose-dependent manner
same,TUNEL staining of tumor sections,"H23 human tumor cells; day 3 tumors, compared to saline-treated animals",many TUNEL-positive cells
same,tumor volume as % of the vehicle control,"H23 human tumor cells; day 14, PG490-88 0.25 mg/kg/day, taxol 10 mg/kg/day, IP",21%
same,Number of mice in group with a tumor,"H23 tumor cells; PG490-88 0.25 mg/kg/day IP, Week 5",0/5
same,Number of mice in group with a tumor,"H23 tumor cells; PG490-88 0.25 mg/kg/day IP, Week 6",1/5
same,Number of mice in group with a tumor,"H23 tumor cells; PG490-88 0.25 mg/kg/day IP, Week 10",1/5
same,Number of mice in group with a tumor,"H23 tumor cells; PG490-88 0.375 mg/kg/day IP, Week 5",0/5
same,Number of mice in group with a tumor,"H23 tumor cells; PG490-88 0.375 mg/kg/day IP, Week 6",1/5
same,Number of mice in group with a tumor,"H23 tumor cells; PG490-88 0.375 mg/kg/day IP, Week 10",1/5
same,Number of mice in group with a tumor,"H23 tumor cells; PG490-88 0.5 mg/kg/day IP, Week 5",0/5
same,Number of mice in group with a tumor,"H23 tumor cells; PG490-88 0.5 mg/kg/day IP, Week 6",1/5
same,Number of mice in group with a tumor,"H23 tumor cells; PG490-88 0.5 mg/kg/day IP, Week 10",1/5
same,Number of mice in group with a tumor,"H23 tumor cells; PG490-88 0.75 mg/kg/day IP, Week 5",0/5
same,Number of mice in group with a tumor,"H23 tumor cells; PG490-88 0.75 mg/kg/day IP, Week 6",0/5
same,Number of mice in group with a tumor,"H23 tumor cells; PG490-88 0.75 mg/kg/day IP, Week 10",0/5
same,H23 tumor formation,"H23 tumor cells; PG490-88 0.75 mg/kg/day, 10 weeks of observation, sodium salt, 0.75 mg/kg/day",No visible tumors developed in any of the mice; also recorded: completely prevented
